# Test results reported in US4419123A, “Herbicidal 4-trifluoromethyl-3'-carbon-substituted-4'-substituted diphenyl ethers” (Rohm and Haas Company, priority 1981, dated 1983).
# Tests used:
# [1] = Postemergence herbicidal activity (% control) against monocot weeds; type: in vivo; details: post-emergence, 336 h, average, about two weeks after application, read-out: Herbicidal activity (% control), postemergence, monocots; for activity at 2241.7 g/ha: 2 lb./A.; for activity at 4483.4 g/ha: 4 lb./A.
# Excerpt: (§1) barnyardgrass (Echinochloa crusgalli) crabgrass (Digitaria spp.) nutsedge (Cyperus esculentus)
# (§2) At 2 and 4 pounds per acre:
# (§3) **Bermudagrass (Cynodon dactylon)
# (§4) *downy brome (Bromus tectorum) foxtail (Setaria faberii)
# (§5) Johnsongrass (Sorghum halepense) […]
# (§6) quackgrass (Agropyron repens)
# (§7) *ryegrass (Lolium perenne)
# (§8) *wild oats (Avena factua)
# (§9) *yellow millet (Panicum miliaceum)
# (§10) The following test procedure is employed.
# soybeans = assay: Crop tolerance (selective herbicidal activity), soybeans; type: in vivo; details: preemergence applications
# Protocol: as §10
# (§11) Following the general test procedure of Example 37, diphenyl ethers are evaluated for significant tolerance (as shown by 50% or less kill of the test crop at levels of application which give more than 50% kill of many or all of the weeds of Example 73) towards some or all of the following common agronomic crops (not all compounds tested against all crops): alfalfa, snapbeans, corn, cotton, cucumbers, peanuts, rape, rice, safflower, soybeans, tomatoes, and wheat.
# [2] = Postemergence herbicidal activity (% control) against dicot weeds; details: post-emergence, 336 h; for activity at 4483.4 g/ha: read-out: Herbicidal activity (% control), postemergence, dicots, 4 lb./A., average, about two weeks after application; for activity at 2241.7 g/ha: read-out: Herbicidal activity (% control), postemergence, dicots, 2 lb./A., average, about two weeks after application
# [3] = Preemergence herbicidal activity (% control) against dicot weeds; details: pre-emergence, 336 h; for activity at 2241.7 g/ha: read-out: Herbicidal activity (% control), preemergence, dicots, 2 lb./A., average, about two weeks after application; for activity at 4483.4 g/ha: read-out: Herbicidal activity (% control), preemergence, dicots, 4 lb./A., average, about two weeks after application
# [4] = Preemergence herbicidal activity (% control) against monocot weeds; type: in vivo; details: pre-emergence, 336 h, average, about two weeks after application, read-out: Herbicidal activity (% control), preemergence, monocots; for activity at 2241.7 g/ha: 2 lb./A.; for activity at 4483.4 g/ha: 4 lb./A.
# Excerpt: as §1, §2, §3, §4, §5, §6, §7, §8, §9, §10
# rice = assay: Crop tolerance (selective herbicidal activity), rice; type: in vivo
# Protocol: as §10, §11
# corn = assay: Crop tolerance (selective herbicidal activity), corn; type: in vivo
# Protocol: as §10, §11
# peanuts = assay: Crop tolerance (selective herbicidal activity), peanuts; type: in vivo
# Protocol: as §10, §11
# wheat = assay: Crop tolerance (selective herbicidal activity), wheat; type: in vivo
# Protocol: as §10, §11
# [5] = postemergence applications or applications on transplanted rice
Compound,activity at 2241.7 g/ha [1],activity at 4483.4 g/ha [1],Tolerance to soybeans (soybeans),activity at 4483.4 g/ha [2],activity at 2241.7 g/ha [3],activity at 4483.4 g/ha [3],activity at 2241.7 g/ha [4],activity at 4483.4 g/ha [4],Tolerance to rice (rice; [5]),Tolerance to corn (corn; preemergence applications),Tolerance to peanuts (peanuts; postemergence applications),Tolerance to peanuts (peanuts; preemergence applications),Tolerance to wheat (wheat; postemergence applications),activity at 2241.7 g/ha [2],Tolerance to corn (corn; postemergence applications),Tolerance to wheat (wheat; preemergence applications),Tolerance to rice (rice; preemergence applications)
O=[N+]([O-])c1ccc(Oc2ccc(C(F)(F)F)cc2Cl)cc1OCC(F)(F)F [Example 11],100%,82%,Tolerance (significant tolerance (as shown by 50% or less kill of the test crop at levels of application which give more than 50% kill of many or all of the weeds of Example 73)),99%,99%,98%,88%,81%,Tolerance (significant tolerance (as shown by 50% or less kill of the test crop at levels of application which give more than 50% kill of many or all of the weeds of Example 73)),Tolerance (significant tolerance (as shown by 50% or less kill of the test crop at levels of application which give more than 50% kill of many or all of the weeds of Example 73)),–,–,–,–,–,–,–
Cc1cc(Oc2ccc(C(F)(F)F)cc2Cl)ccc1[N+](=O)[O-] [Example 36],94%,87%,–,100%,–,100%,100%,93%,–,–,Tolerance (significant tolerance (as shown by 50% or less kill of the test crop at levels of application which give more than 50% kill of many or all of the weeds of Example 73)),Tolerance (significant tolerance (as shown by 50% or less kill of the test crop at levels of application which give more than 50% kill of many or all of the weeds of Example 73)),Tolerance (significant tolerance (as shown by 50% or less kill of the test crop at levels of application which give more than 50% kill of many or all of the weeds of Example 73)),98%,Tolerance (significant tolerance (as shown by 50% or less kill of the test crop at levels of application which give more than 50% kill of many or all of the weeds of Example 73)),–,–
"O=C(O)c1cc(Oc2ccc(C(F)(F)F)cc2Cl)ccc1[N+](=O)[O-] [Example 48, 2-Chloro-α,α,α-trifluoro-p-tolyl-3-carboxy-4-nitrophenylether]",84%,75%,Tolerance (significant tolerance (as shown by 50% or less kill of the test crop at levels of application which give more than 50% kill of many or all of the weeds of Example 73)),100%,100%,97%,100%,99%,Tolerance (significant tolerance (as shown by 50% or less kill of the test crop at levels of application which give more than 50% kill of many or all of the weeds of Example 73)),–,Tolerance (significant tolerance (as shown by 50% or less kill of the test crop at levels of application which give more than 50% kill of many or all of the weeds of Example 73)),Tolerance (significant tolerance (as shown by 50% or less kill of the test crop at levels of application which give more than 50% kill of many or all of the weeds of Example 73)),Tolerance (significant tolerance (as shown by 50% or less kill of the test crop at levels of application which give more than 50% kill of many or all of the weeds of Example 73)),97%,–,–,–
"COC(=O)c1cc(Oc2ccc(C(F)(F)F)cc2Cl)ccc1[N+](=O)[O-] [Example 49, 2-chloro-α,α,α-trifluoro-p-tolyl-3-carbomethoxy-4-nitrophenyl ether]",77%,86%,Tolerance (significant tolerance (as shown by 50% or less kill of the test crop at levels of application which give more than 50% kill of many or all of the weeds of Example 73)),100%,100%,95%,100%,92%,–,–,–,Tolerance (significant tolerance (as shown by 50% or less kill of the test crop at levels of application which give more than 50% kill of many or all of the weeds of Example 73)),–,100%,Tolerance (significant tolerance (as shown by 50% or less kill of the test crop at levels of application which give more than 50% kill of many or all of the weeds of Example 73)),–,–
COC(=O)C(C)Oc1cc(Oc2ccc(C(F)(F)F)cc2Cl)ccc1[N+](=O)[O-] (stereo not shown) [Example 50],100%,97%,Tolerance (significant tolerance (as shown by 50% or less kill of the test crop at levels of application which give more than 50% kill of many or all of the weeds of Example 73)),100%,100%,83%,98%,90%,–,–,–,Tolerance (significant tolerance (as shown by 50% or less kill of the test crop at levels of application which give more than 50% kill of many or all of the weeds of Example 73)),–,–,–,Tolerance (significant tolerance (as shown by 50% or less kill of the test crop at levels of application which give more than 50% kill of many or all of the weeds of Example 73)),–
CNC(=O)C(C)Oc1cc(Oc2ccc(C(F)(F)F)cc2Cl)ccc1[N+](=O)[O-] (stereo not shown) [Example 52],93%,87%,Tolerance (significant tolerance (as shown by 50% or less kill of the test crop at levels of application which give more than 50% kill of many or all of the weeds of Example 73)),100%,75%,67%,98%,79%,–,Tolerance (significant tolerance (as shown by 50% or less kill of the test crop at levels of application which give more than 50% kill of many or all of the weeds of Example 73)),–,Tolerance (significant tolerance (as shown by 50% or less kill of the test crop at levels of application which give more than 50% kill of many or all of the weeds of Example 73)),–,100%,Tolerance (significant tolerance (as shown by 50% or less kill of the test crop at levels of application which give more than 50% kill of many or all of the weeds of Example 73)),–,Tolerance (significant tolerance (as shown by 50% or less kill of the test crop at levels of application which give more than 50% kill of many or all of the weeds of Example 73))
CC(Oc1cc(Oc2ccc(C(F)(F)F)cc2Cl)ccc1[N+](=O)[O-])C(=O)N(C)C (stereo not shown) [Example 53],81%,79%,Tolerance (significant tolerance (as shown by 50% or less kill of the test crop at levels of application which give more than 50% kill of many or all of the weeds of Example 73)),100%,100%,83%,98%,98%,Tolerance (significant tolerance (as shown by 50% or less kill of the test crop at levels of application which give more than 50% kill of many or all of the weeds of Example 73)),–,Tolerance (significant tolerance (as shown by 50% or less kill of the test crop at levels of application which give more than 50% kill of many or all of the weeds of Example 73)),Tolerance (significant tolerance (as shown by 50% or less kill of the test crop at levels of application which give more than 50% kill of many or all of the weeds of Example 73)),–,100%,Tolerance (significant tolerance (as shown by 50% or less kill of the test crop at levels of application which give more than 50% kill of many or all of the weeds of Example 73)),–,–
"CCOc1cc(Oc2c(Cl)cc(C(F)(F)F)cc2Cl)ccc1[N+](=O)[O-] [Example 56, 2,6-Dichloro-α,α,α-trifluoro-p-tolyl-3-ethoxy-4-nitrophenyl ether]",100%,99%,–,100%,–,83%,100%,91%,–,–,–,Tolerance (significant tolerance (as shown by 50% or less kill of the test crop at levels of application which give more than 50% kill of many or all of the weeds of Example 73)),–,99%,Tolerance (significant tolerance (as shown by 50% or less kill of the test crop at levels of application which give more than 50% kill of many or all of the weeds of Example 73)),Tolerance (significant tolerance (as shown by 50% or less kill of the test crop at levels of application which give more than 50% kill of many or all of the weeds of Example 73)),–
